In paper PMC11779861 (Scientific Reports, 2025):
Read-outs that look alike come from different tables or passages of the source.

Key:
[1] = cited from earlier work
[2] = system: ARPE-19 human retinal cells; experiment: MTS cell growth assay; format: cell-based; conditions: read-out: IC50 (cell growth)
[3] = system: Human Induced Pluripotent Stem Cell (hiPSC)-Derived Cardiomyocytes
hiPSC-CMs = experiment: Extracellular lactate dehydrogenase; format: cell-based, human; conditions: 48-hour treatment
hiPSC-CM cell monolayer = experiment: Cell health index: cardiomyocyte cell monolayer assessment; format: cell-based, human

For `CCc1cc(C(N)=O)ccc1-n1nc(C(C)C)c2c(-n3cnc(-c4cnn(C)c4)c3)ccnc21` [TAS-116], the “ocular toxicities in vivo” value [1] is listed as “avoid any ocular toxicities in vivo” and the IC50 ([2]; Homo sapiens, ARPE-19, 48 h) is listed as 0.444 µM.
With `C=CCNC1=C2C[C@@H](C)C[C@H](OC)[C@H](O)[C@@H](C)/C=C(\C)[C@H](OC(N)=O)[C@@H](OC)/C=C\C=C(/C)C(=O)NC(=CC1=O)C2=O` [17-AAG] the quiescence ([3]; 0.25 µM, 48 h) was 1/8, the quiescence ([3]; 2.5 µM, 24 h) was 1/8 and the quiescence ([3]; 2.5 µM, 48 h) was 6/8. For the same molecule, the quiescence ([3]; 10 µM, 24 h) was 8/8, the quiescence ([3]; 10 µM, 48 h) was 8/8 and the quiescence ([3]; 50 µM, 24 h) was 8/8. For the same molecule, the quiescence ([3]; 50 µM, 48 h) was 8/8, the “cardiomyocyte function / cardio-toxicity (in words)” value ([3]; 24 h) was “severe dysregulation of cardiomyocyte function” and the IC50 ([2]; ARPE-19, 48 hr, MTS, Avg ± SD, N = 3 biological replicates) was 0.02 µM. The “extracellular LDH (in words)” value (hiPSC-CMs) was “highly dose-dependently toxic”.
For `COc1cccc2c1C(=O)c1c(O)c3c(c(O)c1C2=O)C[C@@](O)(C(=O)CO)C[C@@H]3O[C@H]1C[C@H](N)[C@H](O)[C@H](C)O1` [Doxorubicin], the electrical quiescence ([3]; 0.3 µM, 30 min) was 1/8, the “cardiomyocyte function / cardio-toxicity (in words)” value ([3]; 24 h) was “largely had no effect on electrophysiology” and the “effect on the cell monolayer (in words)” value (hiPSC-CM cell monolayer) was “greater monolayer damage at both 24 and 48 h”.
Molecule `CCNC(=O)c1noc(-c2cc(C(C)C)c(O)cc2O)c1-c1ccc(CN2CCOCC2)cc1` [NVP AUY922] has an IC50 ([2]; Homo sapiens, ARPE-19, 48 h) of less than 0.01 µM.
